{
  "source": "paper PMC3663881",
  "about": "(Journal of biomolecular screening, 2013)",
  "molecules": {"B1": {"name": "RhaR site probe (oligos 3056/3287) (dsDNA)", "DNA 1": "CGCTGTATCTTGAAAAATCGACGTTTTTTACGTGGTTTTCCGTCGAAAATTTAAGGTAAGAAC", "DNA 2": "GTTCTTACCTTAAATTTTCGACGGAAAACCACGTAAAAAACGTCGATTTTTCAAGATACAGCG"}, "B2": {"name": "lac O1 probe (IR O1-For/O1-Rev) (dsDNA)", "DNA 1": "TGTTGTGTGGAATTGTGAGCGGATAACAATTTCACACAGG", "DNA 2": "CCTGTGTGAAATTGTTATCCGCTCACAATTCCACACAACA"}},
  "key": {"RhaR": {"target": "RhaR (Escherichia coli, UniProt P09378)", "test": "EMSA, inhibition of DNA binding by purified protein"}, "RhaS": {"target": "RhaS (Escherichia coli, UniProt P09377, L201R)", "sequence (P09377 whole entry L201R)": "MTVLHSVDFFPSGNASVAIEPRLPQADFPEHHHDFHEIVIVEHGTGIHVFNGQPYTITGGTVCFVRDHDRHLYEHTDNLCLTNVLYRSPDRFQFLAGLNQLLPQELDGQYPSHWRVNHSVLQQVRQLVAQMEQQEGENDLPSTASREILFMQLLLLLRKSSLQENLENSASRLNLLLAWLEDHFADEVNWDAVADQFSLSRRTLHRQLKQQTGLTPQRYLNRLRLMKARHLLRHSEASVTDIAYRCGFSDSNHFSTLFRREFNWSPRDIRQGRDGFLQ", "test": "EMSA, inhibition of DNA binding by purified protein"}, "GB1b-RhaR": {"target": "T1, GB1b-RhaR (UniProt P09378 1-282)", "T1 sequence": "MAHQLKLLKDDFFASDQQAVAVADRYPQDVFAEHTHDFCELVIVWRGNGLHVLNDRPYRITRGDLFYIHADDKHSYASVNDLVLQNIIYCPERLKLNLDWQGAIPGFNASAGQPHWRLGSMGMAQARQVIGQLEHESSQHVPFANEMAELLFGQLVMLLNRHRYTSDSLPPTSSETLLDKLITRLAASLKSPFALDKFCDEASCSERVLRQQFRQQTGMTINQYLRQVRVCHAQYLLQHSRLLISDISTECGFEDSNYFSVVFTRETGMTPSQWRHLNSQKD", "test": "EMSA"}, "LacI": {"target": "LacI (UniProt P03023 1-360)", "sequence (P03023 whole entry)": "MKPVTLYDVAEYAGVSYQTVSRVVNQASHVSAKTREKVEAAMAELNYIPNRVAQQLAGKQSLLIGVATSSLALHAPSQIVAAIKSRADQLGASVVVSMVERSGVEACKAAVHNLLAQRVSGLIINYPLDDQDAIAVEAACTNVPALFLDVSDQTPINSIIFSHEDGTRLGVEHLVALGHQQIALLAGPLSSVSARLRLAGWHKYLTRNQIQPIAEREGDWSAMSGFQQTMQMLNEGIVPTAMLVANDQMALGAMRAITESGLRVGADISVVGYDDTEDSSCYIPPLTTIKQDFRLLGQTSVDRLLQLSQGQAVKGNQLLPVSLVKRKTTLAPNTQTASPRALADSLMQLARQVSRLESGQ", "test": "EMSA"}},
  "data": [
    {"molecule": "CCCCN1C=C(c2ccc3ccccc3n2)C(C[N+](=O)[O-])c2ccccc21", "note": "(stereo not shown) [OSSL_051168, 1-butyl-4-nitromethyl-3-quinolin-2-yl-4H-quinoline]", "values": [
      {"measurement": "IC50", "setting": "RhaR", "value": "~140", "unit": "µM"},
      {"measurement": "IC50", "setting": "RhaS", "value": "~70", "unit": "µM"}
    ]},
    {"molecule": "B1", "values": [
      {"measurement": "binding result", "setting": "GB1b-RhaR", "value": "binds"}
    ]},
    {"molecule": "B2", "values": [
      {"measurement": "binding result", "setting": "LacI", "value": "binds"}
    ]}
  ]
}
